One may read the IC50 as the point on the concentration scale where inhibition reaches its midpoint. As a reminder, the bioavailability is the share of a dose that reaches the circulation, judged against a reference dose that is usually intravenous. Usually half-life stands for the time needed for the level to fall by half in the phase considered. By clearance is commonly meant the volume of plasma or blood freed of the substance per unit of time. What is called Cmax is the peak of the concentration-time curve.

The source made the active and inactive calls.

In series [1] the target is T1, Adenosine kinase (Homo sapiens, UniProt P55263). The series is described as follows: Inhibition of cytosolic adenosine kinase.
For series [2], the target named is T1, Adenosine kinase. The series is described as follows: Inhibition of adenosine kinase in intact cells assessed as adenosine phosphorylation. In kind it is functional, cell-based.
For series [3], the system named is Rattus norvegicus. In words: Reduction of formalin-induced nociception in rat at 10 umol/kg, ip by paw flinching test. The format is functional. Details: scale not given: the % may be the effect or the level left.
The species entered for series [4] is Rattus norvegicus. In words: Analgesic activity in spinal nerve ligated Sprague-Dawley rat by chung assay neuropathic pain animal model. In kind it is functional, organism-based.
For series [5], the system named is Mus musculus. In words: Analgesic activity in mouse assessed as maximal protective effect at 30 umol/kg, ip by hot plate test. The format is functional. Background: Hot-plate and tail-flick tests time the reaction to a heat stimulus.
A short description of series [6]: Metabolic stability in rat hepatocyte after 24 hrs. In kind it is ADME, cell-based. The note with it: hepatocytes, read-out: Stability.
The nature of series [7]: Volume of distribution in rat at 5 umol/kg, iv. In kind it is ADME, organism-based. The following applies: in vivo, read-out: Vbeta.
Series [8] is described as follows: Bioavailability in rat at 5 umol/kg, po. In kind it is ADME, organism-based. The note with it: in vivo.
Series [9] can be described thus: Half life in rat at 5 umol/kg, iv. The format is ADME, organism-based. The following applies: in vivo.
Series [10] is described as follows: Metabolic stability in human liver microsomes after 1 hr. The following applies: read-out: Stability. The format is ADME, Microsome. In general terms: Microsomes from liver hold many membrane-bound enzymes, among them those of drug oxidation.
The nature of series [11]: Plasma clearance in rat at 5 umol/kg, iv. The format is ADME, organism-based.
Series [12] in a line: Cmax in rat at 5 umol/kg, po. In kind it is ADME, organism-based. Also noted: dose 5 umol/kg, route oral. The following applies: in vivo.
Series [13] relates to Rattus norvegicus. In words: Reduction of formalin-induced nociception in rat upto 30 umol/kg, ip by paw flinching test. The format is functional, organism-based.

T1 sequence (P55263 whole entry): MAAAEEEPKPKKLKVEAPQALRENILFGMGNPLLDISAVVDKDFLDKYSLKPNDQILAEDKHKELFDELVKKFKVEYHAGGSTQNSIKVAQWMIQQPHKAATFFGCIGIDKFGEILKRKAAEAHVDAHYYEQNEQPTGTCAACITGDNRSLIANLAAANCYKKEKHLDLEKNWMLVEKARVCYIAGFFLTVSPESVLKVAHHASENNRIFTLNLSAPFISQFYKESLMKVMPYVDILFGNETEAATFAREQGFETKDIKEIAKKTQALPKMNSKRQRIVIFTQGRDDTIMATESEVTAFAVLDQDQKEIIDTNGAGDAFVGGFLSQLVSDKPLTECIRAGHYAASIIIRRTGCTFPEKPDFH

Regarding `CN(C)c1ccc(C#Cc2ncnc(N(C)C)c2-c2ccc(Cl)cc2)cc1`, the values for the half-maximal inhibitory concentration (IC50) in series [1] and in series [2] were 300 nM and > 1000 nM, respectively.

On to `Nc1ncnc(C#Cc2ccc(N3CCOCC3)nn2)c1-c1ccc(Cl)cc1`, for which the IC50 in series [1] was 45 nM; in [2] it was 700 nM.

`CN(C)c1ccc(C#Cc2ncnc(NCCc3c[nH]cn3)c2-c2ccc(Cl)cc2)cc1`: the IC50 is 80 nM in series [1] and > 1000 nM in [2].

As for `CN(C)c1cc(N2CCOCC2)ncc1C#Cc1ncnc(N)c1-c1ccc2c(c1)OCO2`, the IC50 came out at 72 nM in series [1] and 215 nM in series [2].

For `C#Cc1ncnc(N)c1-c1ccc2c(c1)OCO2`, the IC50 in [1] was > 1000 nM.

Turning to `COCCN(C)c1ccc(C#Cc2ncnc(N)c2-c2ccc(Cl)cc2)cn1`, in series [3], the Activity amounted to 48%. In addition, the IC50 in series [1] amounted to 1 nM; in series [2], 80 nM.

`Cc1ccc(-c2c(N)ncnc2C#Cc2ccc(N(C)C)cc2)cc1`: the half-maximal inhibitory concentration (IC50) in [1] was found to be 13 nM; in series [2] it was 330 nM.

On to `Nc1ncnc(C#Cc2ccc(N3CCOCC3)nc2)c1-c1cccs1`, for which the Activity in series [3] amounted to 44%. Besides, the values for the 50% inhibitory concentration (IC50) in [1] and in [2] were 13 nM and 167 nM, respectively.

As for `CN(C)c1ccc(C#Cc2ncnc(N)c2-c2cccc(Cl)c2)cc1`, the IC50 in series [1] is 10 nM; in series [2] it was 550 nM.

Take `CN(C)c1ccc(C#Cc2ncnc(N3CCOCC3)c2-c2ccc(Cl)cc2)cc1`: the half-maximal inhibitory concentration (IC50) amounted to 6 nM in series [1] and 970 nM in series [2].

In [3], `Nc1ncnc(C#Cc2ccc(N3CCOCC3)nc2)c1-c1ccc2c(c1)OCO2` returned an Activity of 47%. The IC50 was 10 nM in series [1] and 120 nM in series [2].

Consider `Nc1ncnc(C#Cc2ccccn2)c1-c1ccc(Cl)cc1`, for which the results for the half-maximal inhibitory concentration (IC50) in series [1] and in series [2] were 500 nM and > 1000 nM, respectively.

Turning to `CN(C)c1ccc(C#Cc2cc(N)ncn2)cc1`, the half-maximal inhibitory concentration (IC50) in series [1] is > 1000 nM.

Turning to `CN(C)c1ccc(C#Cc2ncnc(N)c2-c2ccc(Cl)cc2)cn1`, in [4], the outcome was inactive. Moreover, the Activity in [3] amounted to 20%; in [5], 73%.

With `Nc1ncnc(C#Cc2ccc(N3CCOCC3)nc2)c1-c1ccsc1`, the IC50 in series [1] was 38 nM; in series [2] it was 212 nM.

Turning to `CC(C)(C)OC(=O)N1CCN(c2ccc(C#Cc3ncnc(N)c3-c3ccc(Cl)cc3)cn2)CC1`, the 50% inhibitory concentration (IC50) in [1] is 62 nM; in series [2], > 1000 nM.

As to `Nc1ncnc(C#Cc2cnc(N3CCOCC3)nc2)c1-c1ccc(Cl)cc1`, the result in series [4] was inactive. Moreover, the values for the Activity in series [3] and in [5] were 36% and 100%, respectively. The IC50 in series [1] worked out at 8 nM; in [2] it was 200 nM.

In turn, `Nc1ncnc(C#Cc2cncc(N3CCOCC3)c2)c1-c1ccc(Cl)cc1` gave an Activity in series [3] of 49%. In addition, the 50% inhibitory concentration (IC50) turned out to be 8 nM in series [1] and 110 nM in series [2].

As to `CN(C)c1ccc(C#Cc2ncnc(N)c2-c2ccccc2)cc1`, the IC50 in series [2] is > 1000 nM.

In the case of `CN(C)c1ccc(-c2c(N)ncnc2C#Cc2ccc(N3CCOCC3)nc2)cc1`, the remaining at 24 h in series [6] worked out at 21%. Further, the Vd in series [7] turned out to be 0.7 L/kg. The same compound came in with a bioavailability in series [8] of 9%. In series [9], this compound had a half-life of 30 min. Also, the Activity in [3] amounted to 44%; in series [5] it was 100%. The compound further came in with a half-maximal inhibitory concentration (IC50) in [1] of 2 nM. For the same compound, the remaining at 1 h in series [10] worked out at 74%. Besides, the clearance in series [11] is 16.7 mL/min/kg. The same compound had a Cmax in [12] of 80 ng/mL.

As to `CN(C)c1ccc(C#Cc2ncnc(N)c2-c2ccc(N(C)C)cc2)cc1`, the IC50 came to 5 nM in series [1] and 240 nM in [2].

Regarding `COc1ccc(-c2c(N)ncnc2C#Cc2ccc(N(C)C)cc2)cc1OC`, the half-maximal inhibitory concentration (IC50) in series [1] is 20 nM; in [2], 500 nM.

`CN(C)c1ccc(C#Cc2ncnc(N)c2C(c2ccccc2)c2ccccc2)cc1` had a half-maximal inhibitory concentration (IC50) in series [1] of 600 nM.

Take `COCCN(C)c1cc(N2CCOCC2)ncc1C#Cc1ncnc(N)c1-c1ccc2c(c1)OCO2`: the IC50 was 101 nM in series [1] and 198 nM in series [2].

Turning to `CN(C)c1ccc(C#Cc2ncnc(N)c2-c2ccccc2Cl)cc1`, the values for the IC50 in [1] and in series [2] were 75 nM and 700 nM, respectively.

Consider `CN(C)c1ccc(C#Cc2ncnc(N3CCNCC3)c2-c2ccc(Cl)cc2)cc1`, for which the IC50 in [1] was 8 nM; in series [2], > 1000 nM.

For `Nc1ncnc2nc(-c3ccc(N4CCOCC4)nc3)cc(-c3cccc(Br)c3)c12`, the Vd in series [7] was 1 L/kg. This compound displayed a maximum concentration (Cmax) in series [12] of 550 ng/mL.

As for `Nc1ncnc(C#Cc2ccc(N3CCOCC3)cc2)c1-c1ccc(Cl)cc1`, the results for the Activity in [3] and in series [5] were 20% and 67%, respectively. Moreover, the 50% inhibitory concentration (IC50) worked out at 17 nM in series [1] and 275 nM in series [2].

For the compound `Nc1ncnc(C#Cc2ccc(N3CCOCC3)nc2)c1-c1ccc(Cl)cc1`, in [4], the result was inactive. Also, the Activity is listed as 29% in [3] and 100% in series [5]. The figures for the IC50 in [1] and in [2] were 3 nM and 58 nM, respectively.

Consider `CC(C)c1ccc(C#Cc2ncnc(N)c2-c2ccc(Cl)cc2)cc1`, for which the values for the IC50 in series [1] and in [2] were 50 nM and > 1000 nM, respectively.

`CN(C)c1ccc(C#Cc2ncnc(NCCc3c[nH]c4ccccc34)c2-c2ccc(Cl)cc2)cc1`: the half-maximal inhibitory concentration (IC50) in [1] is 38 nM; in [2] it was > 1000 nM.

The compound `Nc1ncnc(C#Cc2ccc(N3CCOCC3)nc2)c1-c1cc2ccccc2o1` showed an Activity in series [3] of 36%. The results for the concentration for half-maximal inhibition (IC50) in series [1] and in series [2] were 1 nM and 123 nM, respectively.

With `CC(C)NC(=O)Nc1cc(C#Cc2ncnc(N)c2-c2ccc3c(c2)OCO3)cnc1N1CCOCC1`, the IC50 was determined as 18 nM in [1] and 88 nM in series [2].

As to `CN(C)c1cc(C#Cc2ncnc(N)c2-c2ccc3c(c2)OCO3)cnc1N1CCOCC1`, the result in [13] was inactive. The concentration for half-maximal inhibition (IC50) in series [1] was determined as 26 nM; in series [2] it was 161 nM.

As to `CN(C)c1ccc(C#Cc2ncnc(N)c2-c2ccc3c(c2)OCO3)cc1`, in [2], the IC50 is 250 nM.

Turning to `CN(C)c1ccc(C#Cc2cc(NCc3ccccc3)ncn2)cc1`, the IC50 in [1] was > 1000 nM.

On to `Nc1ncnc(C#Cc2ccc(N3CCOCC3)nc2)c1-c1cc2ccccc2s1`, for which, in [3], the Activity is on record as 49%. The IC50 in series [1] worked out at 0.4 nM; in series [2], 100 nM.

Regarding `Cc1nc(N)c(-c2ccccc2)c(C#Cc2ccc(N(C)C)cc2)n1`, the concentration for half-maximal inhibition (IC50) in series [1] was > 1000 nM.

The record behind these values is ChEMBL document CHEMBL1142899, “4-amino-5-aryl-6-arylethynylpyrimidines: structure-activity relationships of non-nucleoside adenosine kinase inhibitors” (Bioorg Med Chem, 2007).
